# In patent US5935954A, “Compounds with improved multi-drug resistance activity” (Vertex Pharmaceuticals Incorporated, priority 1997, dated 1999):
# Biological target: FKBP12 (Homo sapiens, UniProt P62942)
# Experiment: FKBP12 binding assay (inhibition of rotomase activity)
# Format: biochemical
# Conditions: apparent Ki
# Text: Preferably, the assay measures inhibition of FKBP12 rotomase activity. Such an assay has also been described by M. W. Harding et al., supra and by J. J. Siekierka et al., supra. In this assay the isomerization of an artificial substrate--N-succinyl-Ala-Ala-Pro-Phe-p-nitroanilide--is followed spectrophotometrically. The assay includes the cis form of the substrate, FKBP12, the inhibitor and chymotrypsin. Chymotrypsin is able to cleave p-nitroanilide from the trans form of the substrate, but not the cis form. Release of p-nitroanilide is measured.
# The inhibition of FKBP rotomase activity by the preferred FKBP12 binding compounds present in the compositions of this invention was assayed. In this assay various quantities of FKBP12 binding compound (0nM-10 μM) were added to cis-N-succinyl-Ala-Ala-Pro-Phe-p-nitroanilide in the presence of FKBP12 and chymotrypsin. FKBP12 converts the cis form of the substrate to the trans form. This allows chymotrypsin to cleave p-nitroanilide from the substrate. Release of p-nitroanilide was measured spectrophotometrically. This assay allowed me to measure the change in the first order rate constant of the rotomase activity as a function of FKBP12 binding compound concentration and yielded an estimate of apparent Ki.
# Chain of FKBP12 (P62942 whole entry, species assumed): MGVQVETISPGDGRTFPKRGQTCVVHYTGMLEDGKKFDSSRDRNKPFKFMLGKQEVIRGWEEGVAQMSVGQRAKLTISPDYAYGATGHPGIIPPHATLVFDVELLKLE
row,SMILES,Ki [nM]
1,CCOCc1cc2ccccc2n1-c1cccc([C@H](OC(=O)[C@@H]2CCCCN2C(=O)C(=O)C2(O)CCOCC2)/C(C)=C/[C@H]2CC[C@H](O)CC2)c1 [Compound 65],490
2,CCOCc1cccc(COCC)c1-c1cncc([C@H](CCN2CCOCC2)OC(=O)[C@@H]2CCCCN2C(=O)C(=O)CC(C)C)c1 [Compound 77],2100
3,CCOCc1cccc(COCC)c1-c1cncc([C@@H](CCN2CCOCC2)OC(=O)[C@@H]2CCCCN2C(=O)C(=O)C2(C)CCCCC2)c1 [Compound 78],77
4,CCCCc1ccc(C)n1-c1cccc([C@@H](CCN2CCOCC2)OC(=O)[C@@H]2CCCCN2C(=O)C(=O)[C@@H]2C[C@H](C(C)C)CC[C@H]2C)c1 [Compound 126],3000
5,CCOCc1cccc(COCC)c1-c1csc(C(CCN2CCOCC2)OC(=O)[C@@H]2CCCCN2C(=O)C(=O)C(C)(C)COC)c1 (stereo partly drawn) [Compound 49],> 10000
6,CCC/C(=C/COC)c1cncc(C(OC(=O)[C@@H]2CCCCN2C(=O)C(=O)[C@@H]2CCCC[C@H]2C)/C(C)=C/C2CCOCC2)c1 (stereo partly drawn) [Compound 131],90
7,CCC/C(=C/COC)c1cncc([C@H](CCN2CCOCC2)OC(=O)[C@@H]2CCCCN2C(=O)C(=O)C(C)(C)C(C)C)c1 [Compound 114],172
8,CCCc1ccc(CCC)n1-c1cccc([C@H](OC(=O)[C@@H]2CCCCN2C(=O)C(=O)C(C)(C)C(C)C)/C(C)=C/c2ccncc2)c1 [Compound 106],2100
9,C=CCC/C=C(/c1cccnc1)c1ccc([C@@H](OC(=O)[C@@H]2CCCCN2C(=O)C(=O)C(C)(C)COC)/C(C)=C/C2CCN(C)CC2)s1 [Compound 55],> 10000
10,CCOCc1cc2ccccc2n1-c1cccc([C@H](OC(=O)[C@@H]2CCCCN2C(=O)C(=O)C2(O)CCOCC2)/C(C)=C/[C@H]2CC[C@H](O)CC2)c1 [Compound 57],930
11,CCC/C=C(\c1cncc([C@@H](CCN2CCOCC2)OC(=O)[C@@H]2CCCCN2C(=O)C(=O)[C@@H]2C[C@@H](OCC)CN2C(C)=O)c1)C(C)C [Compound 132],> 10000
12,CCOCc1cccc(COCC)c1-c1cncc(C(OC(=O)[C@@H]2CCCCN2C(=O)C(=O)C(C)(C)C)/C(C)=C/c2ccncc2)c1 (stereo partly drawn) [Compound 67],270
13,CCCC/C=C(\c1cncc([C@@H](OC(=O)[C@@H]2CCCCN2C(=O)C(=O)C(C)C)/C(C)=C/C2CCN(C)CC2)c1)C1CCCCC1 [Compound 74],500
14,CCOCc1cccc(COCC)c1-c1csc([C@@H](CCN2CCOCC2)OC(=O)[C@@H]2CCCCN2C(=O)C(=O)C(C)(C)C)c1 [Compound 63],> 5000
15,CCOCc1cccc(COCC)c1-c1cncc([C@H](CCN2CCOCC2)OC(=O)[C@@H]2CCCCN2C(=O)C(=O)C2(C)CCCCC2)c1 [Compound 80],230
16,CCCc1ccc(CCC)n1-c1cccc(C(OC(=O)[C@@H]2CCCCN2C(=O)C(=O)[C@@H]2CCCC[C@H]2C)/C(C)=C/c2ccncc2)c1 (stereo partly drawn) [Compound 108],5100
17,CCOCc1cccc(COCC)c1-c1cncc([C@@H](CCN2CCOCC2)OC(=O)[C@@H]2CCCCN2C(=O)C(=O)C(C)(C)C)c1 [Compound 81],189
18,COC/C=C(\c1cncc([C@@H](CCN2CCOCC2)OC(=O)[C@@H]2CCCCN2C(=O)C(=O)[C@@H]2C[C@H](C(C)(C)OC)CC[C@H]2C)c1)C(C)C [Compound 124],1000

row,SMILES,Ki [nM]
1,C=CCC/C=C(/c1cccnc1)c1ccc([C@H](OC(=O)[C@@H]2CCCCN2C(=O)C(=O)C(C)(C)COC)/C(C)=C/C2CCN(C)CC2)s1 [Compound 56],> 5000
2,CCC/C=C(\c1cncc([C@@H](CCN2CCOCC2)OC(=O)[C@@H]2CCCCN2C(=O)C(=O)[C@@H]2C[C@H](OCC)CC[C@H]2C)c1)C(C)C [Compound 130],490
3,CCOc1ccc(OCC)c(-c2cncc([C@@H](CCCc3ccccc3)OC(=O)[C@@H]3CCCCN3C(=O)C(=O)c3ccc(OC)c(OC)c3)c2)c1 [Compound 11],7
4,CCCC/C=C(\c1cncc([C@H](OC(=O)[C@@H]2CCCCN2C(=O)C(=O)C(C)C)/C(C)=C/C2CCN(C)CC2)c1)C1CCCCC1 [Compound 75],188
5,C=CCC/C=C(/c1cccnc1)c1ccc([C@@H](CCN2CCOCC2)OC(=O)[C@@H]2CCCCN2C(=O)C(=O)C2(C)CCCCC2)s1 [Compound 96],28
6,COC/C=C(\c1cncc([C@@H](CCN2CCOCC2)OC(=O)[C@@H]2CCCCN2C(=O)C(=O)[C@@H]2CCCC[C@H]2C)c1)C(C)C [Compound 118],70
7,CCO[C@@H]1CC[C@@H](C)[C@H](C(=O)C(=O)N2CCCC[C@H]2C(=O)O[C@H](CCN2CCOCC2)c2cccc(-n3c(C)ccc3C)c2)C1 [Compound 127],19
8,CCCc1ccc(CCC)n1-c1cccc([C@@H](CCN2CCOCC2)OC(=O)[C@@H]2CCCCN2C(=O)C(=O)C(C)(C)C(C)C)c1 [Compound 103],21
9,C=CCC/C=C(\c1ccc([C@H](CCN2CCOCC2)OC(=O)[C@@H]2CCCCN2C(=O)C(=O)C2(C)CCCCC2)s1)C1CCOCC1 [Compound 87],2.3
10,CCC/C=C(/c1cccnc1)c1cccc(C(CCN2CCOCC2)OC(=O)[C@@H]2CCCCN2C(=O)C(=O)C(C)(C)C(C)C)c1 (stereo partly drawn) [Compound 92],32
11,C=CCC/C=C(\c1ccc([C@@H](CCN2CCOCC2)OC(=O)[C@@H]2CCCCN2C(=O)C(=O)C2(O)CCCCC2)s1)C1CCOCC1 [Compound 95],14
12,CCCc1ccc(CCC)n1-c1cccc([C@H](CCN2CCOCC2)OC(=O)[C@@H]2CCCCN2C(=O)C(=O)C(C)(C)C(C)C)c1 [Compound 104],870
13,CCOCc1cccc(COCC)c1-c1csc([C@@H](CCN2CCOCC2)OC(=O)[C@@H]2CCCCN2C(=O)C(=O)C(C)(C)C)c1 [Compound 62],100
14,COc1cc(C(=O)C(=O)N2CCCC[C@H]2C(=O)O[C@H](CCCc2ccccc2)c2cccc(/C(=C\CCc3ccccc3)c3cccnc3)c2)cc(OC)c1OC [Compound 6],24
15,CCC/C(=C/COC)c1cncc([C@@H](CCN2CCOCC2)OC(=O)[C@@H]2CCCCN2C(=O)C(=O)[C@@H]2CCCC[C@H]2C)c1 [Compound 117],150
16,CCCc1ccc(CCC)n1-c1cccc(C(OC(=O)[C@@H]2CCCCN2C(=O)C(=O)C(C)(C)C(C)C)/C(C)=C/c2ccncc2)c1 (stereo partly drawn) [Compound 109],> 10000
17,CCCCc1ccc(C)n1-c1cccc([C@@H](CCN2CCOCC2)OC(=O)[C@@H]2CCCCN2C(=O)C(=O)C(C)(C)C(C)C)c1 [Compound 122],32

# Other lines, results leading:
row,Ki [nM],SMILES
1,45,CCC/C=C(/c1ccc(C)cc1)c1cncc([C@H](OC(=O)[C@@H]2CCCCN2C(=O)C(=O)c2ccc(F)cc2)/C(C)=C/[C@H]2CC[C@H](O)CC2)c1 [Compound 39]
2,> 30,CCCC/C=C(/c1cccnc1)c1cccc([C@H](CCCc2ccccc2)OC(=O)[C@@H]2CCCCN2C(=O)C(=O)c2cc(OC)c(OC)c(OC)c2)c1 [Compound 36]
3,90,CCOc1ccccc1-c1cncc([C@H](CCCc2ccccc2)OC(=O)[C@@H]2CCCCN2C(=O)C(=O)c2ccc(OC)c(OC)c2)c1 [Compound 21]
4,1,COc1ccccc1-c1cncc([C@@H](CCCc2ccccc2)OC(=O)[C@@H]2CCCCN2C(=O)C(=O)c2cc(OC)c(OC)c(OC)c2)c1 [Compound 15]
5,> 10000,COCc1cccc(COC)c1-c1cncc([C@H](OC(=O)[C@@H]2CCCCN2C(=O)C(=O)C(C)(C)COC)/C(C)=C/[C@H]2CC[C@H](O)CC2)c1 [Compound 51]
6,100,CCC/C=C(\c1cncc([C@H](OC(=O)[C@@H]2CCCCN2C(=O)C(=O)c2ccco2)/C(C)=C/[C@H]2CC[C@H](O)CC2)c1)C1CCCCC1 [Compound 46]
7,5.8,CCOc1ccccc1-c1cncc([C@@H](CCCc2ccccc2)OC(=O)[C@@H]2CCCCN2C(=O)C(=O)c2ccc(OC)c(OC)c2)c1 [Compound 20]
8,3300,CCC/C=C(/c1cccnc1)c1cccc([C@H](CCCc2ccccc2)OC(=O)[C@@H]2CCCCN2C(=O)C(=O)c2cc(OC)c(OC)c(OC)c2)c1 [Compound 16]
9,64,CCOc1ccc(OCC)c(-c2cncc([C@H](CCCc3ccccc3)OC(=O)[C@@H]3CCCCN3C(=O)C(=O)c3cc(OC)c(OC)c(OC)c3)c2)c1 [Compound 88]
10,12,COc1ccc(C(=O)C(=O)N2CCCC[C@H]2C(=O)O[C@@H](CCCc2ccccc2)c2cncc(-c3ccccc3OC)c2)cc1OC [Compound 14]
11,< 1,CCCC/C=C(/c1cccnc1)c1cccc([C@@H](CCCc2ccccc2)OC(=O)[C@@H]2CCCCN2C(=O)C(=O)c2cc(OC)c(OC)c(OC)c2)c1 [Compound 37]
12,230,CCC/C=C(\c1cncc([C@@H](OC(=O)[C@@H]2CCCCN2C(=O)C(=O)c2ccco2)/C(C)=C/[C@H]2CC[C@H](O)CC2)c1)C1CCCCC1 [Compound 45]
13,0.6,CCC/C=C(/c1cccnc1)c1cccc([C@@H](CCCc2ccccc2)OC(=O)[C@@H]2CCCCN2C(=O)C(=O)c2cc(OC)c(OC)c(OC)c2)c1 [Compound 17]
14,12,COc1cc(C(=O)C(=O)N2CCCC[C@H]2C(=O)O[C@@H](/C(C)=C/[C@H]2CC[C@H](O)CC2)c2cncc(-c3c(OC)cccc3OC)c2)cc(OC)c1OC [Compound 33]
15,84,COC/C=C(\c1cncc([C@H](OC(=O)[C@@H]2CCCCN2C(=O)C(=O)c2ccco2)/C(C)=C/[C@H]2CC[C@H](O)CC2)c1)C1CCCCC1 [Compound 47]
16,1000,CCOc1ccc(OCC)c(-c2cccc([C@@H](CCCc3ccccc3)OC(=O)[C@@H]3CCCCN3C(=O)C(=O)c3cc(OC)c(OC)c(OC)c3)c2)c1 [Compound 8]
